Data on 27 compounds can be found in patent US10457644B2, “Pyrazol compounds as EAAT3 inhibitors” (Hoffmann-La Roche Inc., priority 2016, dated 2019).

Data set [1] addresses T1, human EAAT3 (Homo sapiens, UniProt P43005).
T1 construct: expressed in transfected cells
T1 sequence (P43005 1-524): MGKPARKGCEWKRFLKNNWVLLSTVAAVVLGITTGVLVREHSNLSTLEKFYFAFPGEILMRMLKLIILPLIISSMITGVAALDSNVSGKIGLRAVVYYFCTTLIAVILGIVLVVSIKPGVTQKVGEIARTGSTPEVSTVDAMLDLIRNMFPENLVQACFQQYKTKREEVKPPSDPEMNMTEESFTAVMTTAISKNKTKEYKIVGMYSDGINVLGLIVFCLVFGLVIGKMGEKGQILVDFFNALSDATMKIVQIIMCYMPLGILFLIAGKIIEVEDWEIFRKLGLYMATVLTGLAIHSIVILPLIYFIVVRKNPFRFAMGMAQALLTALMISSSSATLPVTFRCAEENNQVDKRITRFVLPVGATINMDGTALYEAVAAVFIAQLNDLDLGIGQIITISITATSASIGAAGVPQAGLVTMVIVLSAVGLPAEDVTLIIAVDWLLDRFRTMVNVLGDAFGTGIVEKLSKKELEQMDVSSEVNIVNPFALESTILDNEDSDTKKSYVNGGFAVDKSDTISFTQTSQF
Nature of the data set: FLIPR Membrane Potential (FMP) assay. The format is cell-based. To be noted: HEK-293 cells stably expressing human EAAT3; L-glutamate as agonist at 80% of maximum response; antagonist applied 15 min before; Kb by Cheng-Prusoff from IC50. The method, then:
The FLIPR Membrane Potential (FMP) Assay
HEK-293 cells stably expressing human EAAT3 were seeded at 55 000 cells/well in growth medium (DMEM glutamate free (Invitrogen 11960-044), 1% Pen Strep (10 ml/l GIBCO BRL N^o 15140-023), 10% FCS non dialysed heat inactivated, 5 mg/l puromycin) in poly-D-lysine treated 96-well black microtiter plates with clear-bottom. After 24 h, the growth medium was removed and 100 μl/well of Krebs buffer (140 mM NaCl, 4.7 mM KCl, 2.5 mM CaCl2, 1.2 mM MgCl2, 11 mM HEPES, 10 mM D-glucose, pH=7.4) added. The cells were then loaded by adding 100 μl/well FMP assay dye (FLIPR Membrane Potential assay reagent, Molecular Devices). The 96-well plates were then incubated at 37° C. for 1 h. The depolarization of the cells will cause more dye to enter in the cells, where it will bind to intracellular proteins and lipids and cause an increase in the fluorescence signal. Antagonist potency at human EAAT3 was determined by using L-glutamate as agonist at a concentration which gives 80% of the maximum response. The antagonists were applied 15 min before the application of the agonist L-glutamate. The assays were performed at room temperature and measurements done by using a Fluorometric Imaging Plate Reader (FLIPR, Molecular Devices) and filter #2. Responses were measured as peak increase in fluorescence minus basal (i.e. fluorescence without addition of L-glutamate). Kb was determined using the Cheng-Prusoff equation Kb=IC50/[1+(A/EC50)], where IC50 is the concentration of the antagonist producing 50% inhibition, A is the concentration of the agonist against which the IC50 is being determined ([…]) and EC50 is the concentration of the agonist producing […].

The compound `Cn1nccc1-c1cc(C(=O)NC(C)(C)C)cc(-c2ccc(Cl)cc2)c1` [Example 1, N-tert-Butyl-3-(4-chlorophenyl)-5-(2-methyl-pyrazol-3-yl)-benzamide] displayed a melting point of 191 °C. For the same compound, the Kb in data set [1] stood at 0.24 µM.

`CC(C)(C)NC(=O)c1cc(-c2ccc(F)cc2)cc(-c2ccnn2C(C)(C)C)c1` [Example 2, N-tert-Butyl-3-(2-tert-butyl-pyrazol-3-yl)-5-(4-fluorophenyl)-benzamide] gave a melting point of 210 °C. For the same compound, in data set [1], the antagonist dissociation constant (Kb) worked out at 0.19 µM.

The compound `CC(C)(C)NC(=O)c1cc(-c2ccc(C(F)(F)F)cc2)cc(-c2ccnn2C(C)(C)C)c1` [Example 3, N-tert-Butyl-3-(2-tert-butyl-pyrazol-3-yl)-5-[4-(trifluoromethyl)-phenyl]-benzamide] gave a melting point of 205 °C. For the same compound, in data set [1], the Kb stood at 0.28 µM.

As for `CC(C)(C)NC(=O)c1cc(-c2ccc(Cl)cc2)cc(-c2ccnn2C(C)(C)C)c1` [Example 4, N-tert-Butyl-3-(2-tert-butyl-pyrazol-3-yl)-5-(4-chlorophenyl)-benzamide], the melting point turned out to be 209 °C. The Kb in data set [1] turned out to be 0.32 µM.

Compound `CC(C)n1nccc1-c1cc(C(=O)NC(C)(C)C)cc(-c2ccc(Cl)cc2)c1` [Example 5, N-tert-Butyl-3-(4-chlorophenyl)-5-(2-propan-2-yl-pyrazol-3-yl)-benzamide] showed a melting point of 84 °C. In addition, in data set [1], the Kb came to 0.17 µM.

In turn, `CC(C)n1nccc1-c1cc(C(=O)NC(C)(C)C)cc(-c2ccc(F)cc2)c1` [Example 6, N-tert-Butyl-3-(4-fluorophenyl)-5-(2-propan-2-yl-pyrazol-3-yl)-benzamide] returned a melting point of 161 °C. For the same compound, the Kb in data set [1] was 0.095 µM.

In the case of `CC(C)n1nccc1-c1cc(C(=O)NC(C)(C)C)cc(-c2ccc(C(F)(F)F)cc2)c1` [Example 7, N-tert-Butyl-3-(2-propan-2-yl-pyrazol-3-yl)-5-[4-(trifluoromethyl)-phenyl]-benzamide], the melting point came out at 81 °C. In addition, the Kb in data set [1] amounted to 0.18 µM.

On to `CC(C)n1nccc1-c1cc(C(=O)NC(C)(C)C)cc(-c2ccc(F)c(F)c2)c1` [Example 8, N-tert-Butyl-3-(3,4-difluorophenyl)-5-(2-propan-2-yl-pyrazol-3-yl)-benzamide], for which the melting point was determined as 82 °C. In data set [1], this compound registered a Kb of 0.39 µM.

For the compound `Cc1ccc(-c2cc(C(=O)NC(C)(C)C)cc(-c3ccnn3C(C)C)c2)cc1` [Example 9, N-tert-Butyl-3-(4-methylphenyl)-5-(2-propan-2-yl-pyrazol-3-yl)-benzamide], the melting point is 163 °C. For the same compound, the Kb in data set [1] came out at 0.26 µM.

Consider `CC(C)c1ccc(-c2cc(C(=O)NC(C)(C)C)cc(-c3ccnn3C(C)C)c2)cc1` [Example 10, N-tert-Butyl-3-(4-propan-2-yl-phenyl)-5-(2-propan-2-yl-pyrazol-3-yl)-benzamide], for which the melting point came out at 86 °C. Besides, the Kb in data set [1] is 0.55 µM.

On to `COc1ccc(-c2cc(C(=O)NC(C)(C)C)cc(-c3ccnn3C(C)C)c2)cc1` [Example 11, N-tert-Butyl-3-(4-methoxyphenyl)-5-(2-propan-2-yl-pyrazol-3-yl)-benzamide], for which the melting point is 79 °C. In data set [1], this compound had a Kb of 0.29 µM.

Consider `CC(C)n1nccc1-c1cc(C(=O)NC(C)(C)C)cc(-c2ccc(F)c(Cl)c2)c1` [Example 12, N-tert-Butyl-3-(3-chloro-4-fluorophenyl)-5-(2-propan-2-yl-pyrazol-3-yl)-benzamide], for which the melting point came to 81 °C. Besides, in data set [1], the Kb amounted to 0.61 µM.

The compound `CC(C)n1nccc1-c1cc(C(=O)NC(C)(C)C)cc(-c2ccccc2)c1` [Example 13, N-tert-Butyl-3-phenyl-5-(2-propan-2-yl-pyrazol-3-yl)-benzamide] yielded a melting point of 168 °C. Moreover, in data set [1], the Kb was determined as 0.3 µM.

As to `CC(C)n1nccc1-c1cc(C(=O)NC(C)(C)C)cc(-c2ccc(C3CC3)cc2)c1` [Example 14, N-tert-Butyl-3-(4-cyclopropyl-phenyl)-5-(2-propan-2-yl-pyrazol-3-yl)-benzamide], the melting point is 83 °C. The same compound had a Kb in data set [1] of 0.88 µM.

Take `Cc1cc(-c2cc(C(=O)NC(C)(C)C)cc(-c3ccnn3C(C)C)c2)ccc1F` [Example 15, N-tert-Butyl-3-(4-fluoro-3-methyl-phenyl)-5-(2-propan-2-yl-pyrazol-3-yl)-benzamide]: the melting point came out at 155 °C. Also, the Kb in data set [1] was determined as 1.28 µM.

For the compound `CC(C)n1nccc1-c1cc(C(=O)NC(C)(C)C)cc(-c2ccc(Cl)c(F)c2)c1` [Example 16, N-tert-Butyl-3-(4-chloro-3-fluoro-phenyl)-5-(2-propan-2-yl-pyrazol-3-yl)-benzamide], the melting point was determined as 87 °C. In data set [1], this compound returned a Kb of 0.31 µM.

`CC(C)n1nccc1-c1cc(C(=O)NC(C)(C)C)cc(-c2ccc(C#N)cc2)c1` [Example 17, N-tert-Butyl-3-(4-cyano-phenyl)-5-(2-propan-2-yl-pyrazol-3-yl)-benzamide]: the melting point amounted to 94 °C. The same compound returned a Kb in data set [1] of 0.33 µM.

In turn, `CCC(C)(C)NC(=O)c1cc(-c2ccc(Cl)cc2)cc(-c2ccnn2C(C)(C)C)c1` [Example 18, 3-(2-tert-Butyl-pyrazol-3-yl)-5-(4-chlorophenyl)-N-(2-methyl-butan-2-yl)-benzamide] displayed a melting point of 183.5 °C. For the same compound, in data set [1], the Kb was 3.42 µM.

With `CCC(C)(C)NC(=O)c1cc(-c2ccc(Cl)cc2)cc(-c2ccnn2C(C)C)c1` [Example 19, 3-(4-Chlorophenyl)-N-(2-methyl-butan-2-yl)-5-(2-propan-2-yl-pyrazol-3-yl)-benzamide], the melting point is 72.5 °C. The compound also came in with a Kb in data set [1] of 0.89 µM.

In turn, `Cc1ccc(-c2cc(C(=O)NC(C)(C)C)cc(-c3ccnn3C(C)C)c2)cc1F` [Example 20, N-tert-Butyl-3-(3-fluoro-4-methyl-phenyl)-5-(2-propan-2-yl-pyrazol-3-yl)-benzamide] displayed a melting point of 81 °C. The Kb in data set [1] was determined as 0.36 µM.

In turn, `CC(C)n1nccc1-c1cc(C(=O)NC(C)(C)C#N)cc(-c2ccc(Cl)cc2)c1` [Example 21, 3-(4-Chlorophenyl)-N-(2-cyano-propan-2-yl)-5-(2-propan-2-yl-pyrazol-3-yl)-benzamide] returned a melting point of 96 °C. In data set [1], the Kb came out at 0.32 µM.

On to `CC(C)(C#N)NC(=O)c1cc(-c2ccc(Cl)cc2)cc(-c2ccnn2C(C)(C)C)c1` [Example 22, 3-(2-tert-Butylpyrazol-3-yl)-5-(4-chlorophenyl)-N-(2-cyanopropan-2-yl)-benzamide], for which the melting point is 119 °C. The Kb in data set [1] is 0.37 µM.

In the case of `CC(C)(C)NC(=O)c1cc(-c2ccc(F)cc2)cc(-c2ccnn2C2CC2)c1` [Example 23, N-tert-Butyl-3-(2-cyclopropyl-pyrazol-3-yl)-5-(4-fluorophenyl)-benzamide], the melting point came to 66 °C. This compound also gave a Kb in data set [1] of 0.11 µM.

On to `CCn1nccc1-c1cc(C(=O)NC(C)(C)C)cc(-c2ccc(Cl)cc2)c1` [Example 24, N-tert-Butyl-3-(4-chlorophenyl)-5-(2-ethyl-pyrazol-3-yl)-benzamide], for which the melting point stood at 68 °C. In data set [1], this compound gave a Kb of 0.17 µM.

Compound `CC(C)(C)NC(=O)c1cc(-c2ccc(Cl)cc2)cc(-c2ccnn2CC2CC2)c1` [Example 25, N-tert-Butyl-3-(4-chlorophenyl)-5-[2-(cyclopropyl-methyl)-pyrazol-3-yl]-benzamide] had a melting point of 159 °C. Also, the antagonist dissociation constant (Kb) in data set [1] was found to be 0.25 µM.

Turning to `CC(C)n1nccc1-c1cc(C(=O)NC(C)(C)C2CC2)cc(-c2ccc(Cl)cc2)c1` [Example 26, 3-(4-Chlorophenyl)-N-(2-cyclopropyl-propan-2-yl)-5-(2-propan-2-yl-pyrazol-3-yl)-benzamide], the melting point amounted to 169 °C. For the same compound, the Kb in data set [1] was 1.52 µM.

Take `Cc1cc(-c2cc(C(=O)NC(C)(C)C)cc(-c3ccnn3C(C)(C)C)c2)ccc1F` [Example 27, N-tert-Butyl-3-(2-tert-butyl-pyrazol-3-yl)-5-(4-fluoro-3-methyl-phenyl)-benzamide]: the melting point was 186 °C. In addition, the Kb in data set [1] was determined as 0.93 µM.

Broadly, the Kb is the affinity of an antagonist, worked out from how it opposes an agonist. The melting point is the temperature, or range, at which the solid turns liquid.
